# Data: patent US8343990B2, “Substituted cyclopropyl compounds, compositions containing such compounds and methods of treatment” (Merck Sharp & Dohme Corp., priority 2008, dated 2013)
# Molecular target: T1, GPR119 receptor (UniProt Q8TDV5, S309L, species not given)
# T1 sequence (Q8TDV5 1-335 S309L): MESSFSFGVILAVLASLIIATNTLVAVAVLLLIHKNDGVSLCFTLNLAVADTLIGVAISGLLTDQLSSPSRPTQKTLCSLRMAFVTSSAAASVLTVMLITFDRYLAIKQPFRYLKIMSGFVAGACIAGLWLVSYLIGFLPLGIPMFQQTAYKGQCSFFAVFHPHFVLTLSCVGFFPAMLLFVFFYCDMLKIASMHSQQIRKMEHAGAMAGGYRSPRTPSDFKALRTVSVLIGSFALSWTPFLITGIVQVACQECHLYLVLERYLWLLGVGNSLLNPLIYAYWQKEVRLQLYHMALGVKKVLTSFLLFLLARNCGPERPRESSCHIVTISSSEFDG
# Test: GPR119 signaling, cyclic AMP (cAMP) homogenous time resolved fluorescence (HTRF) assay
# Assay type: cell-based
# Settings: CHO cells with Gα15 and murine GPR119, or HEK293 Flp-In cells with human GPR119 S309L; table does not say which; read-out: Activity: inflection points, denoted as EC50 values (agonist activation of GPR119, cAMP)
# Text: Measurement of GPR119 Signaling Using a Cyclic AMP (cAMP) Homogenous Time Resolved Fluorescence (HTRF) Assay
# Chinese hamster ovary (CHO) cell lines stably transfected with the permissive guanine nucleotide binding protein alpha 15 (Gα15) and […] GPR119 were maintained in DMEM media containing FBS, penicillin-streptomycin, puromycin, and G418 (geneticin). Alternatively, human embryonic kidney (HEK)293 Flp-In cells (Invitrogen, Carlsbad, Calif.) were stably transfected with a human SNP variant (S309L) of GPR119 and maintained in DMEM media containing FBS, penicillin-streptomycin, and hygromycin. Agonist activation of the GPR119 receptor was measured in receptor transfected cells described above, treated with compounds of this invention, using a commercial homogenous time resolved fluorescence (HTRF) kit for measurement of cAMP (CisBio, Bedford, Mass.). The assay was performed in 96-well half-volume plates (murine) or 384-well plates (human) following the manufacturers instructions. Briefly, suspended cells were incubated with a dose titration of test compound at room temperature for 60 min, lysed, and incubated with HTRF reagents for an additional 60 min. The plate was read using an Envision multilabel reader (Perkin Elmer) adjusted to read time resolved fluorescence and the cAMP concentrations were extrapolated from a cAMP calibration curve. […] The concentration of test compound required to stimulate a half-maximal response (EC50), and efficacy as compared to an internal agonist control, was determined from a sigmoidal 4-parameter curve fit of the resulting plot of normalized activity versus compound concentration.
row,EC50 [µM],SMILES
1,0.01 to 0.05,"Cc1cnc(N2CCC(C3CC3CCOc3ccc(-n4ccnn4)cc3)CC2)nc1 (racemic) [Ex 27c, rac cis-5-methyl-2-[4-(2-{2-[4-(1H-1,2,3-triazol-1-yl)phenoxy]ethyl}cyclopropyl)piperidin-1-yl]pyrimidine]"
2,< 0.01,"Cc1nc(C#N)cc(OCCC2CC2C2CCN(c3ncc(Cl)cn3)CC2)n1 (single isomer, unassigned) [Ex 34, Chiral-cis-6-(2-{2-[1-(5-chloropyrimidin-2-yl)piperidin-4-yl]cyclopropyl}ethoxy)-2-methylpyrimidine-4-carbonitrile]"
3,0.01 to 0.05,"Cc1nc(C#N)cc(OCCC2CC2C2CCN(c3ncc(Cl)cn3)CC2)n1 (racemic) [Ex 100, rac trans 6-(2-{2-[1-(5-chloropyrimidin-2-yl)piperidin-4-yl]cyclopropyl}ethoxy)-2-methylpyrimidine-4-carbonitrile]"
4,> 0.2,"Cc1nnc(-c2cccc(OCCC3CC3C3CCN(c4ncc(Cl)cn4)CC3)c2)o1 (racemic) [Ex 8, rac cis-5-chloro-2-[4-(2-{2-[3-(5-methyl-1,3,4-oxadiazol-2-yl)phenoxy]ethyl}cyclopropyl)piperidin-1-yl]pyrimidine]"
5,0.05 to 0.2,"Clc1cnc(N2CCC(C3CC3CCOc3ccc(-c4ncon4)cc3)CC2)nc1 (racemic) [Ex 17, rac cis-5-chloro-2-[4-(2-{2-[4-(1,2,4-oxadiazol-3-yl)phenoxy]ethyl}cyclopropyl)piperidin-1-yl]pyrimidine]"
6,< 0.01,"Cc1cnc(N2CCC([C@H]3C[C@H]3CCOc3cc(C#N)nc(C)n3)CC2)nc1 (racemic) [Ex 40, Rac-cis-2-methyl-6-(2-{2-[1-(5-methylpyrimidin-2-yl)piperidin-4-yl]cyclopropyl}ethoxy)pyrimidine-4-carbonitrile]"
7,> 0.2,"CS(=O)(=O)c1ccc(OC[C@H]2C[C@H]2CC2CCN(c3ncc(Cl)cn3)CC2)cc1 (racemic) [Ex 116, rac-cis-5-chloro-2-{-4-[(2-{[4-(methylsulfonyl)phenoxy]methyl}cyclopropyl)methyl]piperidin-1-yl}pyrimidine]"
8,0.01 to 0.05,"O=S(=O)(c1ccc(OCCC2CC2C2CCN(c3ncc(Cl)cn3)CC2)cc1)C1CC1 (racemic) [Ex 13, rac cis-5-chloro-2-[4-(2-{2-[4-(cyclopropylsulfonyl)phenoxy]ethyl}cyclopropyl)piperidin-1-yl]pyrimidine]"
9,> 0.2,"N#Cc1ccc(OC[C@@H]2C[C@H]2CC2CCN(c3ncc(Cl)cn3)CC2)cc1F [Ex 105, 4-[((1R,2R)-2-{[1-(5-chloropyrimidin-2-yl)piperidin-4-yl]methyl}cyclopropyl)methoxy]-2-fluorobenzonitrile]"
10,< 0.01,"Cc1nnc(-c2ccc(OCCC3CC3C3CCN(c4ncc(Cl)cn4)CC3)cc2)o1 (racemic) [Ex 16, rac cis-5-chloro-2-[4-(2-{2-[4-(5-methyl-1,3.4-oxadiazol-2-yl)phenoxy]ethyl}cyclopropyl)piperidin-1-yl]pyrimidine]"
11,0.05 to 0.2,"Clc1cnc(N2CCC(C3CC3CCOc3ccc(-c4cnoc4)cc3)CC2)nc1 (racemic) [Ex 20, rac cis-5-chloro-2-(4-{2-[2-(4-isoxazol-4-ylphenoxy)ethyl]cyclopropyl)piperidin-1-yl)pyrimidine]"
12,< 0.01,"O=C(NC1CC1)c1ccc(OCCC2CC2C2CCN(c3ncc(Cl)cn3)CC2)cc1F (racemic) [Ex 11, rac cis-4-(2-{2-[1-(5-chloropyrimidin-2-yl)piperidin-4-yl]cyclopropyl}ethoxy)-N-cyclopropyl-2-fluorobenzamide]"
13,0.05 to 0.2,"N#Cc1ccc(OCC[C@@H]2C[C@@H]2C2CCN(c3ncc(Cl)cn3)CC2)cn1 (racemic) [Ex 54, Rac-cis-5-(2-{2-[1-(5-chloropyrimidin-2-yl)piperidin-4-yl]cyclopropyl}ethoxy)pyridine-2-carbonitrile]"
14,0.01 to 0.05,"O=C(NC1CC1)c1ccc(OC[C@H]2C[C@@H]2CC2CCN(c3ncc(Cl)cn3)CC2)cc1F [Ex 108, 4-[((1S,2S)-2-{[1-(5-chloropyrimidin-2-yl)piperidin-4-yl]methyl}cyclopropyl)methoxy]-N-cyclopropyl-2-fluorobenzamide]"
15,< 0.01,"Cc1nnc(-c2ccc(OCC[C@H]3C[C@H]3C3CCN(c4ncc(F)cn4)CC3)cc2F)o1 (racemic) [Ex 86, Rac-cis-5-fluoro-2-[4-(2-{2-[3-fluoro-4-(5-methyl-1,3,4-oxadiazol-2-yl)phenoxy]ethyl}cyclopropyl)piperidin-1-yl]pyrimidine]"
16,0.01 to 0.05,"Clc1cnc(N2CCC(C3CC3CCOc3ccc(-n4cncn4)cc3)CC2)nc1 (racemic) [Ex 25, rac cis-5-chloro-2-[4-(2-{2-[4-(1H-1,2,4-triazol-1-yl)phenoxy]ethyl}cyclopropyl)piperidin-1-yl]pyrimidine]"
17,0.05 to 0.2,"NS(=O)(=O)c1ccc(OC[C@H]2C[C@@H]2CC2CCN(c3ncc(Cl)cn3)CC2)cc1 [Ex 112, 4-[((1S,2S)-2-{[1-(5-chloropyrimidin-2-yl)piperidin-4-yl]methyl}cyclopropyl)methoxy]benzenesulfonamide]"
18,0.05 to 0.2,"Cc1nnc(-c2ccc(OC[C@@H]3C[C@H]3CC3CCN(c4ncc(Cl)cn4)CC3)cc2F)o1 [Ex 109, 5-chloro-2-{4-[((1R,2R)-2-{[3-fluoro-4-(5-methyl-1,3,4-oxadiazol-2-yl)phenoxy]methyl}cyclopropyl)methyl]piperidin-1-yl}pyrimidine]"
19,0.01 to 0.05,"Clc1cnc(N2CCC(C3CC3CCOc3ccc(-c4ccno4)cc3)CC2)nc1 (racemic) [Ex 21, rac cis-5-chloro-2-(4-{2-[2-(4-isoxazol-5-ylphenoxy)ethyl]cyclopropyl}piperidin-1-yl)pyrimidine]"
20,< 0.01,"Clc1cnc(N2CCC(C3CC3CCOc3ccc(-n4cnnn4)cc3)CC2)nc1 (racemic) [Ex 30, rac cis-5-chloro-2-[4-(2-{2-[4-(1H-tetrazol-1-yl)phenoxy]ethyl}cyclopropyl)piperidin-1-yl]pyrimidine]"
21,0.01 to 0.05,"Cc1cnc(N2CCC([C@H]3C[C@H]3CCOc3cc(C)nc(C)n3)CC2)nc1 (racemic) [Ex 41, Rac-cis-2,4-dimethyl-6-(2-{2-[1-(5-methylpyrimidin-2-yl)piperidin-4-yl]cyclopropyl}ethoxy)pyrimidine]"
22,0.05 to 0.2,"Clc1cnc(N2CCC(C3CC3CCOc3ccncc3)CC2)nc1 (racemic) [Ex 92, rac-trans-5-chloro-2-(4-{2-[2-(pyridin-4-yloxy)ethyl]cyclopropyl}piperidin-1-yl)pyrimidine]"
23,< 0.01,"N#Cc1cc(OCC[C@@H]2C[C@@H]2C2CCN(c3ncc(Cl)cn3)CC2)ncn1 (racemic) [Ex 37, Rac-cis-6-(2-{2-[1-(5-chloropyrimidin-2-yl)piperidin-4-yl]cyclopropyl}ethoxy)pyrimidine-4-carbonitrile]"
24,0.01 to 0.05,"Clc1cnc(N2CCC([C@H]3C[C@@H]3CCOc3ccc(-n4cncn4)cc3)CC2)nc1 [Ex 95, 5-chloro-2-[4-((1R,2R)-2-{2-[4-(1H-1,2,4-triazol-1-yl)phenoxy]ethyl}cyclopropyl)piperidin-1-yl]pyrimidine]"
25,0.01 to 0.05,"Clc1cnc(N2CCC(C3CC3CCOc3ccc(-n4ncnn4)cc3)CC2)nc1 (racemic) [Ex 31, rac cis-5-chloro-2-[4-(2-{2-[4-(2H-tetrazol-2-yl)phenoxy]ethyl}cyclopropyl)piperidin-1-yl]pyrimidine]"
26,> 0.2,"Cc1nnc(-c2ccc(OCC[C@H]3C[C@H]3C3CCN(c4ncc(Cl)cc4Cl)CC3)cc2F)o1 (racemic) [Ex 88, Rac-cis-3,5-dichloro-2-[4-(2-{2-[3-fluoro-4-(5-methyl-1,3,4-oxadiazol-2-yl)phenoxy]ethyl}cyclopropyl)piperidin-1-yl]pyridine]"
27,> 0.2,"N#Cc1ccc(OC[C@@H]2C[C@@H]2CC2CCN(c3ncc(Cl)cn3)CC2)cc1F (racemic) [Ex 119, rac-cis 4-[(2-{[1-(5-chloropyrimidin-2-yl)piperidin-4-yl]methyl}cyclopropyl)methoxy]-2-fluorobenzonitrile]"
28,< 0.01,"Cc1nnn(-c2ccc(OCCC3CC3C3CCN(c4ncc(Cl)cn4)CC3)cc2)n1 (racemic) [Ex 31a, rac cis-5-chloro-2-[4-(2-{2-[4-(5-methyl-2H-tetrazol-2-yl)phenoxy]ethyl}cyclopropyl)piperidin-1-yl]pyrimidine]"
29,0.01 to 0.05,"O=C(NC1CC1)c1ccc(OC[C@@H]2C[C@@H]2CC2CCN(c3ncc(Cl)cn3)CC2)cc1F (racemic) [Ex 117, rac-cis 4-[(2-{[1-(5-chloropyrimidin-2-yl)piperidin-4-yl]methyl}cyclopropyl)methoxy]-N-cyclopropyl-2-fluorobenzamide]"
